Here are results for one compound from paper PMC3948622, “Docking, Synthesis and Antiproliferative Activity of N-Acylhydrazone Derivatives Designed as Combretastatin A4 Analogues” (PLoS ONE, 2014).

Usually IC50 stands for the concentration that gives 50% inhibition. A higher IC50 goes with a need for much substance.

Read-outs that look alike come from different tables or passages of the source.

One data set deals with human lymphocytes. Nature of the data set: In vitro antiproliferative assay, human lymphocytes. As to conditions: Lymphocyte, Table 2. The format is cell-based.
The subject of a further data set is BALB/c nude mice. The note with it: for Survival: 4 days. How it is done: During the HFA, tumor cells (i.e., SF-295 and HCT-116) were cultivated within biocompatible, semipermeable polyvinylidene fluoride hollow fibers (HFs) and subcutaneously (s.c.) implanted within the dorsal portion of BALB/c nude mice. LASSBio-1586 (5b) and 5-Fluorouracil (5-FU), which was the positive control, were administered intraperitoneally for 4 consecutive days. On day 5, the fibers were removed to quantify the antiproliferative activity of 5b and 5-FU.
A total of 26 female BALB/c nude (nu/nu) mice aging 6–8 weeks were obtained from the animal facilities of State University of São Paulo (USP), Faculty of Medicine, São Paulo (SP), Brazil. They were kept in well-ventilated and sterile cages (Alesco, São Paulo) under standard conditions of light (12 h with alternative day and night cycles) and temperature (22±1°C) and were housed with access to commercial sterile rodent stock diet (Nutrilabor, São Paulo, Brazil) and water ad libitum. As previously mentioned procedures are in accordance with guidelines for the welfare of animals in experimental neoplasia and with national and international standard on the care and use of experimental laboratory animals and were approved by the local Ethical Committee on Animal Research (Process No. 102/2007).
Mice were anaesthetized with ketamine (90 mg/kg) - xylazine (4.5 mg/kg) (Sigma Aldrich). Groups were divided into: a) Negative control (DMSO 5%, n = 6); b) Positive control (5-Flouoruracil, 5-FU, 25 mg/kg/day, n = 7) (Sigma Aldrich); c) LASSBio-1586 (5b; 25 mg/kg/day, n = 7); d) LASSBio-1586 (5b; 50 mg/kg/day, n = 6). A small incision in the neck was incised to permit subcutaneous (s.c.) implantation of the fibers in the dorsal part of the animal. Each animal received 2 fibers at s.c. site. All incisions were sealed with a surgical stapler. The test compounds were administered intraperitoneally during 4 consecutive days. On day 5, fibers were removed to quantify the antiproliferative capacity as described above.

Regarding `COc1cc(C(=O)N/N=C/c2ccccc2)cc(OC)c1OC` [Compound 5b, (E)-N′benzylidene-3,4,5-trimetoxybenzohydrazide], the IC50 in the data set with human lymphocytes is 1.34 µM. The Survival is on record as 7/7 in the data set on BALB/c nude mice (25 mg/kg/day intraperitoneally) and 6/6 with BALB/c nude mice (50 mg/kg/day intraperitoneally). Besides, the “deaths of mice during treatment” value with BALB/c nude mice (intraperitoneally for 4 consecutive days, HFA) is reported as “no deaths occurred”.
